Assay results: US10294202B2, “Pyrrolidinones as herbicides” (FMC Corporation, priority 2013, dated 2019)

Columns and labels:
[1] = tested on: giant foxtail; assay: Test A pre-/postemergence herbicide test; assay type: in vivo, Setaria faberii; conditions: for Foxtail, Giant plant response rating: visual rating on 0 to 100 scale (0 no effect, 100 complete control)
Procedure, shortened: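 Seeds in loam–sand blend received preemergence directed soil spray; separately, plants 2–10 cm at one- to two-leaf stage received postemergence spray, both with test chemicals in non-phytotoxic solvent with surfactant. After ~10 days in greenhouse, injury rated visually against untreated controls, 0 (no effect) to 100 (complete control).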

[2] = tested on: velvetleaf; assay: Test C pre-/postemergence herbicide test; assay type: in vivo, Abutilon theophrasti
From the text: (§1) Seeds of plant species selected from blackgrass (Alopecurus myosuroides), ryegrass, Italian (Italian ryegrass, Lolium multiflorum), wheat (winter wheat, Triticum aestivum), galium (catchweed bedstraw, Galium aparine), corn (Zea mays), crabgrass, large (large crabgrass, Digitaria sanguinalis), foxtail, giant (giant foxtail, Setaria faberii), johnsongrass (Sorghum halepense), lambsquarters (Chenopodium album), morningglory (Ipomoea coccinea), nutsedge, yellow (yellow nutsedge, Cyperus esculentus), pigweed (Amaranthus retroflexus), ragweed (common ragweed, Ambrosia elatior), soybean (Glycine max), barnyardgrass (Echinochloa crus-galli), oilseed rape (Brassica napus), waterhemp (common waterhemp, Amaranthus rudis), kochia (Kochia scoparia), oat, wild (wild oat, Avena fatua), surinam grass (Brachiaria decumbens), foxtail, green (green foxtail, Setaria viridis), goosegrass (Eleusine indica), bromegrass, downy (downy bromegrass, Bromus tectorum), nightshade (eastern black nightshade, Solanum ptycanthum), cocklebur (common cocklebur, Xanthium strumarium), cupgrass, woolly (woolly cupgrass, Eriochloa villosa), bermudagrass (Cynodon dactylon), sunflower, (common oilseed sunflower, Helianthus annuus), Russian thistle (Salsola kali) and velvetleaf (Abutilon theophrasti) were planted into a blend of loam soil and sand and treated preemergence with test chemicals formulated in a non-phytotoxic solvent mixture which included a surfactant. At the same time, plants selected from these crop and weed species and also barley (winter barley, Hordeum vulgare), […]), chickweed (common chickweed, Stellaria media), deadnettle (henbit deadnettle, Lamium amplexicaule), and canarygrass (littleseed canarygrass, Phalaris minor) were planted in pots containing Redi-Earth® planting medium (Scotts Company, 14111 Scottslawn Road, Marysville, Ohio 43041) comprising spaghnum peat moss, vermiculite, wetting agent and starter nutrients and treated with postemergence applications of test chemicals formulated in the same manner. Plants ranged in height from 2 to 18 cm (1- to 4-leaf stage) for postemergence treatments. Treated plants and controls were maintained in a greenhouse for 13 to 15 days, after which time all species were compared to controls and visually evaluated. Plant response ratings, summarized in Table C, are based on a scale of 0 to 100 where 0 is no effect and 100 is complete control. A dash (-) response means no test result.

[3] = tested on: barnyardgrass; assay: Test B flooded paddy test; assay type: in vivo, Echinochloa crus-galli; conditions: Flood, scale of 0 to 100 where 0 is no effect and 100 is complete control
Procedure, shortened: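 In-water application to pots flooded 3 cm deep, plants at 2-leaf stage. Held in greenhouse 13–15 days at constant flood depth. Scored 0–100 by eye against controls.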

[4] = tested on: foxtail, giant; assay: Test C pre-/postemergence herbicide test; assay type: in vivo, Setaria faberii
From the text: as §1

[5] = tested on: corn; assay: Test C pre-/postemergence herbicide test; assay type: in vivo, Zea mays
From the text: as §1

[6] = tested on: pigweed; assay: Test C pre-/postemergence herbicide test; assay type: in vivo, Amaranthus retroflexus
From the text: as §1

[7] = tested on: crabgrass, large; assay: Test C pre-/postemergence herbicide test; assay type: in vivo, Digitaria sanguinalis
From the text: as §1

[8] = Postemergence, 125 g ai/ha, 0 to 100 scale, 0 no effect, 100 complete control
[9] = Postemergence, 500 g ai/ha, 0 to 100 scale (0 no effect, 100 complete control)
[10] = preemergence, 500 g ai/ha, 0 to 100 scale
[11] = Postemergence, 31 g ai/ha, scale 0 (no effect) to 100 (complete control)
[12] = Postemergence, 62 g ai/ha, scale 0 to 100 (0 no effect, 100 complete control)
[13] = Postemergence, 125 g ai/ha, scale 0 to 100 (0 no effect, 100 complete control)
[14] = Postemergence, 250 g ai/ha, scale 0 to 100 (0 no effect, 100 complete control)
[15] = Preemergence, 31 g ai/ha, scale 0 to 100, 0 is no effect and 100 is complete control
[16] = Preemergence, 62 g ai/ha, scale 0 to 100
[17] = Preemergence, 125 g ai/ha, scale 0 to 100 (0 no effect, 100 complete control)
[18] = Postemergence, 31 g ai/ha, scale 0 to 100 (0 no effect, 100 complete control)
[19] = Postemergence, 62 g ai/ha, scale 0 (no effect) to 100 (complete control)
[20] = Preemergence, 62 g ai/ha, scale 0 to 100 (0 no effect, 100 complete control)
[21] = Postemergence, 125 g ai/ha, 0 to 100 scale, 0 is no effect, 100 is complete control
[22] = preemergence, 500 g ai/ha, 0 to 100 scale, 0 is no effect and 100 is complete control

O=C1NCC(c2ccc(F)c(F)c2)C1C(=O)Nc1ccccc1C(F)(F)F (racemic) [Compound 6]
Plant response rating, Foxtail, Giant [1, 8]: 70 | Plant response rating, Foxtail, Giant [1, 9]: 80 | Foxtail, Giant plant response rating ([1]; Preemergence, 125 g ai/ha): 90 | Plant response rating, Foxtail, Giant [1, 10]: 90

Cc1c(F)cccc1NC(=O)C1C(=O)NCC1c1ccc(F)c(F)c1 (racemic) [Compound 106]
Plant response rating, Velvetleaf [2, 11]: 0 | Plant response rating, Velvetleaf [2, 12]: 0 | Plant response rating, Velvetleaf [2, 13]: 5 | Plant response rating, Velvetleaf [2, 14]: 5 | Plant response rating, Barnyardgrass ([3]; 1000 g ai/ha): 60 | Plant response rating, Foxtail, Giant ([1]; Postemergence, 1000 g ai/ha, 0 to 100 scale (0 no effect, 100 complete control)): 90 | Plant response rating, Foxtail, Giant ([1]; preemergence, 1000 g ai/ha, 0 to 100 scale): 90 | Plant response rating, Foxtail, Giant [4, 11]: 50 | Plant response rating, Foxtail, Giant [4, 12]: 35 | Plant response rating, Foxtail, Giant [4, 13]: 45 | Plant response rating, Foxtail, Giant [4, 14]: 50 | Plant response rating, Corn [5, 11]: 0 | Plant response rating, Corn [5, 12]: 0 | Plant response rating, Corn [5, 13]: 0 | Plant response rating, Corn [5, 14]: 0 | Plant response rating, Pigweed [6, 11]: 0 | Plant response rating, Pigweed [6, 12]: 0 | Plant response rating, Pigweed [6, 13]: 5 | Plant response rating, Pigweed [6, 14]: 30 | Plant response rating, Crabgrass, Large [7, 11]: 10 | Plant response rating, Crabgrass, Large [7, 12]: 10 | Plant response rating, Crabgrass, Large [7, 13]: 25 | Plant response rating, Crabgrass, Large [7, 14]: 60

Cc1ccccc1NC(=O)C1C(=O)NCC1c1cccc(C(F)(F)F)c1 (racemic) [Compound 109]
Plant response rating, Velvetleaf [2, 11]: 0 | Plant response rating, Velvetleaf [2, 12]: 0 | Plant response rating, Velvetleaf [2, 13]: 0 | Plant response rating, Velvetleaf [2, 14]: 5 | Velvetleaf plant response rating [2, 15]: 0 | Plant response rating, Velvetleaf [2, 16]: 0 | Plant response rating, Velvetleaf [2, 17]: 0 | Plant response rating (scale of 0 to 100), Velvetleaf ([2]; Preemergence, 250 g ai/ha): 10 | Plant response rating, Barnyardgrass ([3]; 1000 g ai/ha): 0 | Plant response rating, Foxtail, Giant [1, 8]: 90 | Plant response rating, Foxtail, Giant [1, 9]: 90 | Foxtail, Giant plant response rating ([1]; Preemergence, 125 g ai/ha): 90 | Plant response rating, Foxtail, Giant [1, 10]: 90 | Plant response rating, Foxtail, Giant [4, 11]: 60 | Plant response rating, Foxtail, Giant [4, 12]: 15 | Plant response rating, Foxtail, Giant [4, 13]: 50 | Plant response rating, Foxtail, Giant [4, 14]: 70 | Foxtail, Giant plant response rating [4, 15]: 90 | Plant response rating, Foxtail, Giant [4, 16]: 95 | Plant response rating, Foxtail, Giant [4, 17]: 98 | Plant response rating (scale of 0 to 100), Foxtail, Giant ([4]; Preemergence, 250 g ai/ha): 100 | Plant response rating, Corn [5, 11]: 0 | Plant response rating, Corn [5, 12]: 0 | Plant response rating, Corn [5, 13]: 0 | Plant response rating, Corn [5, 14]: 5 | Corn plant response rating [5, 15]: 0 | Plant response rating, Corn [5, 16]: 5 | Plant response rating, Corn [5, 17]: 60 | Plant response rating (scale of 0 to 100), Corn ([5]; Preemergence, 250 g ai/ha): 75 | Plant response rating, Pigweed [6, 11]: 5 | Plant response rating, Pigweed [6, 12]: 5 | Plant response rating, Pigweed [6, 13]: 5 | Plant response rating, Pigweed [6, 14]: 10 | Pigweed plant response rating [6, 15]: 30 | Plant response rating, Pigweed [6, 16]: 0 | Plant response rating, Pigweed [6, 17]: 0 | Plant response rating (scale of 0 to 100), Pigweed ([6]; Preemergence, 250 g ai/ha): 20 | Plant response rating, Crabgrass, Large [7, 11]: 10 | Plant response rating, Crabgrass, Large [7, 12]: 10 | Plant response rating, Crabgrass, Large [7, 13]: 40 | Plant response rating, Crabgrass, Large [7, 14]: 70 | Crabgrass, Large plant response rating [7, 15]: 98 | Plant response rating, Crabgrass, Large [7, 16]: 100 | Plant response rating, Crabgrass, Large [7, 17]: 100 | Plant response rating (scale of 0 to 100), Crabgrass, Large ([7]; Preemergence, 250 g ai/ha): 100

O=C1NCC(c2ccc(C(F)(F)F)cc2)C1C(=O)Nc1cccc(F)c1F (racemic) [Compound 202]
Plant response rating, Velvetleaf [2, 18]: 10 | Plant response rating, Velvetleaf [2, 19]: 20 | Plant response rating, Velvetleaf [2, 13]: 30 | Plant response rating, Velvetleaf [2, 14]: 55 | Velvetleaf plant response rating [2, 15]: 10 | Velvetleaf plant response rating [2, 20]: 30 | Plant response rating, Velvetleaf [2, 17]: 50 | Plant response rating (scale of 0 to 100), Velvetleaf ([2]; Preemergence, 250 g ai/ha): 65 | Plant response rating, Barnyardgrass ([3]; 500 g ai/ha): 65 | Plant response rating, Foxtail, Giant ([1]; 125 g ai/ha, visual rating, 0 to 100 scale, 0 no effect, 100 complete control, approximately 10 days, preemergence): 90 | Plant response rating, Foxtail, Giant [1, 21]: 90 | Foxtail, Giant plant response rating (0 to 100 scale, 0 is no effect, 100 is complete control) ([1]; Postemergence, 500 g ai/ha): 90 | Plant response rating, Foxtail, Giant [1, 22]: 90 | Plant response rating, Foxtail, Giant [4, 18]: 5 | Plant response rating, Foxtail, Giant [4, 19]: 25 | Plant response rating, Foxtail, Giant [4, 13]: 70 | Plant response rating, Foxtail, Giant [4, 14]: 85 | Foxtail, Giant plant response rating [4, 15]: 90 | Foxtail, Giant plant response rating [4, 20]: 90 | Plant response rating, Foxtail, Giant [4, 17]: 95 | Plant response rating (scale of 0 to 100), Foxtail, Giant ([4]; Preemergence, 250 g ai/ha): 98 | Plant response rating, Corn [5, 18]: 0 | Plant response rating, Corn [5, 19]: 0 | Plant response rating, Corn [5, 13]: 10 | Plant response rating, Corn [5, 14]: 35 | Corn plant response rating [5, 15]: 20 | Corn plant response rating [5, 20]: 85 | Plant response rating, Corn [5, 17]: 75 | Plant response rating (scale of 0 to 100), Corn ([5]; Preemergence, 250 g ai/ha): 85 | Plant response rating, Pigweed [6, 18]: 80 | Plant response rating, Pigweed [6, 19]: 80 | Plant response rating, Pigweed [6, 13]: 85 | Plant response rating, Pigweed [6, 14]: 85 | Pigweed plant response rating [6, 15]: 85 | Pigweed plant response rating [6, 20]: 85 | Plant response rating, Pigweed [6, 17]: 90 | Plant response rating (scale of 0 to 100), Pigweed ([6]; Preemergence, 250 g ai/ha): 100 | Plant response rating, Crabgrass, Large [7, 18]: 30 | Plant response rating, Crabgrass, Large [7, 19]: 50 | Plant response rating, Crabgrass, Large [7, 13]: 60 | Plant response rating, Crabgrass, Large [7, 14]: 75 | Crabgrass, Large plant response rating [7, 15]: 90 | Crabgrass, Large plant response rating [7, 20]: 95 | Plant response rating, Crabgrass, Large [7, 17]: 98 | Plant response rating (scale of 0 to 100), Crabgrass, Large ([7]; Preemergence, 250 g ai/ha): 98

O=C1NCC(c2cc(F)cc(F)c2)C1C(=O)Nc1ccccc1Cl (racemic) [Compound 280]
Velvetleaf plant response rating [2, 15]: 0 | Velvetleaf plant response rating [2, 20]: 0 | Plant response rating, Velvetleaf [2, 17]: 0 | Plant response rating (scale of 0 to 100), Velvetleaf ([2]; Preemergence, 250 g ai/ha): 10 | Plant response rating, Barnyardgrass ([3]; 500 g ai/ha): 65 | Plant response rating, Foxtail, Giant [1, 21]: 70 | Plant response rating, Foxtail, Giant [1, 9]: 80 | Plant response rating, Foxtail, Giant ([1]; Preemergence, 125 g ai/ha, 0 to 100 scale where 0 is no effect and 100 is complete control): 90 | Plant response rating, Foxtail, Giant [1, 22]: 90 | Foxtail, Giant plant response rating [4, 15]: 70 | Foxtail, Giant plant response rating [4, 20]: 80 | Plant response rating, Foxtail, Giant [4, 17]: 90 | Plant response rating (scale of 0 to 100), Foxtail, Giant ([4]; Preemergence, 250 g ai/ha): 95 | Corn plant response rating [5, 15]: 0 | Corn plant response rating [5, 20]: 0 | Plant response rating, Corn [5, 17]: 0 | Plant response rating (scale of 0 to 100), Corn ([5]; Preemergence, 250 g ai/ha): 5 | Pigweed plant response rating [6, 15]: 10 | Pigweed plant response rating [6, 20]: 0 | Plant response rating, Pigweed [6, 17]: 20 | Plant response rating (scale of 0 to 100), Pigweed ([6]; Preemergence, 250 g ai/ha): 20 | Crabgrass, Large plant response rating [7, 15]: 85 | Crabgrass, Large plant response rating [7, 20]: 90 | Plant response rating, Crabgrass, Large [7, 17]: 95 | Plant response rating (scale of 0 to 100), Crabgrass, Large ([7]; Preemergence, 250 g ai/ha): 100
